Target: Platelet-derived growth factor receptor beta (Homo sapiens, UniProt P09619)
Experiment: PDGFRβ Kinase Assay: Biochemical PDGFRβ kinase assays were performed in 96 well microtiter plates that were coated overnight with 75 μg of poly-Glu-Tyr (4:1) in 10 mM Phosphate Buffered Saline (PBS), pH 7.4. The coated plates were washed with 2 mls per well PBS+0.05% Tween-20 (PBS-T), blocked by incubation with PBS containing 1% BSA, then washed with 2 mls per well PBS-T prior to starting the reaction. Reactions were carried out in 100 μL reaction volumes containing 36 μM ATP in kinase buffer (50 mM Hepes buffer pH 7.4, 20 mM MgCl2, 0.1 mM MnCl2 and 0.2 mM Na3VO4). Test compounds were reconstituted in 100% DMSO and added to the reaction to give a final DMSO concentration of 5%. Reactions were initiated by the addition 20 ul per well of kinase buffer containing 200-300 ng purified cytoplasmic domain PDGFR-b protein (Millipore). Following a 60 minute incubation at 30° C., the reactions were washed 2 mls per well PBS-T. 100 μl of a monoclonal anti-phosphotyrosine antibody-peroxidase conjugate diluted 1:10,000 in PBS-T was added to the wells for 30 minutes. Following a 2 mls per well wash with PBS-Tween-20, 100 μl of O-Phenylenediamine Dihydrochloride in phosphate-citrate buffer, containing urea hydrogen peroxide, was added to the wells for 7-10 minutes as a colorimetric substrate for the peroxidase. […]

Platelet-derived growth factor receptor beta, sequence (P09619 whole entry, the tested form may be a part): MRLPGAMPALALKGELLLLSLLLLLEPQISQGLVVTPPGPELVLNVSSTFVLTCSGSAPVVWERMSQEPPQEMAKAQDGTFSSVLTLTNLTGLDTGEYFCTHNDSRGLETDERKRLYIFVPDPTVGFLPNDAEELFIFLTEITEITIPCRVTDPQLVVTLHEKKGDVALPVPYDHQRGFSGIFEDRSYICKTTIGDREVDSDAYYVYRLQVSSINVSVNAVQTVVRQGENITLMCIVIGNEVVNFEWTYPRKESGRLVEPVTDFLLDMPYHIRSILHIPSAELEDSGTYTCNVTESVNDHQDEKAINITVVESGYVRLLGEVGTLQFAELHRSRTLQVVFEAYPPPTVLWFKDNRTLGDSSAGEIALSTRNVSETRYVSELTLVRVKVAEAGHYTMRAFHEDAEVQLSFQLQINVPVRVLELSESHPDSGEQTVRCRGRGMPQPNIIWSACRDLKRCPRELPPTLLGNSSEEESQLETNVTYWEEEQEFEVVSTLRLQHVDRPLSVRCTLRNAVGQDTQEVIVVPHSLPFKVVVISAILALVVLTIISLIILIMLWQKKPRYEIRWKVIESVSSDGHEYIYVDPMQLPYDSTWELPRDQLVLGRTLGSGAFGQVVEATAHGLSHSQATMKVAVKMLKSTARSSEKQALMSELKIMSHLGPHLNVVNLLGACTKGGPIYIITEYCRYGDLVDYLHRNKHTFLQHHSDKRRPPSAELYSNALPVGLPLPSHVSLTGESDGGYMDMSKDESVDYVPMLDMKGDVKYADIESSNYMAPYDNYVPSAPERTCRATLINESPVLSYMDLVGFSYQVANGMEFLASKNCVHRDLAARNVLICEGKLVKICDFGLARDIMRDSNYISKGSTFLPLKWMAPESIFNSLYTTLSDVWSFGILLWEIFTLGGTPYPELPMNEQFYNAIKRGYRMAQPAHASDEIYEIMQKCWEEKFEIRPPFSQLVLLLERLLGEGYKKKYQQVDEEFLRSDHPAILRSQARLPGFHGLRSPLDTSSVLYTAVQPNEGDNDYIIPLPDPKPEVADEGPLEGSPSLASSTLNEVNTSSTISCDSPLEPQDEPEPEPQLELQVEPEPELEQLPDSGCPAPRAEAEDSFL

Cc1ccc(F)c(NC(=O)c2cccc(C#Cc3cc(C(=O)N=S4(=O)CCOCC4)cnc3N)c2)c1 showed an IC50 of 11 nM.

From ChEMBL document CHEMBL5725727, “Substituted nicotinamide derivatives as kinase inhibitors” (2017)
